Key:
hERG (KCNH2) = hERG (KCNH2) (Homo sapiens, UniProt Q12809); experiment: Inhibition of human ERG expressed in CHO cells at 40 uM by automated patch-clamp electrophysiological assay; format: toxicity, cell-based; settings: CHO cells that express hERG
[1] = Acute toxicity in mouse assessed as histopathological changes in kidney at 1000 mg/kg, po by Hematoxylin and eosin staining based microscopy; format: organism-based; settings: in vivo
[2] = Acute toxicity in mouse assessed as histopathological changes in lung at 1000 mg/kg, po by Hematoxylin and eosin staining based microscopy; format: organism-based; settings: in vivo
[3] = Acute toxicity in mouse assessed as change in body weight at 1000 mg/kg, po; format: organism-based; settings: in vivo
Cytochrome P450 3A4 [4] = molecular target: T1, Cytochrome P450 3A4 (Homo sapiens, UniProt P08684); experiment: Inhibition of CYP3A4M in human liver microsomes using midazolam as substrate measured after 10 mins in presence of NADPH; format: ADME, Microsome
T1 sequence (P08684 whole entry): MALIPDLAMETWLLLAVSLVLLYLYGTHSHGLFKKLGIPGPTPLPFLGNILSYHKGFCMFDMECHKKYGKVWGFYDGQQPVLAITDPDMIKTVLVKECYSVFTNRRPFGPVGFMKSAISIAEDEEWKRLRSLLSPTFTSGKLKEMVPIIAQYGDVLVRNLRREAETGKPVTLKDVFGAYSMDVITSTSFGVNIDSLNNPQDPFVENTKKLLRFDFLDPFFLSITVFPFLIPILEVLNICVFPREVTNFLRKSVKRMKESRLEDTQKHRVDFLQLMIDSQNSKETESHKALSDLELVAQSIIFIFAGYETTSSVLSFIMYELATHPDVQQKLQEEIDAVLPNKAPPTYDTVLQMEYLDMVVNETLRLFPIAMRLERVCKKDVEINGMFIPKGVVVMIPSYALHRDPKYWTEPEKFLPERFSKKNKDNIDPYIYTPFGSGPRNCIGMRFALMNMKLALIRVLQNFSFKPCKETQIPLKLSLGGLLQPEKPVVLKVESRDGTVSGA

[5] = system: Human immunodeficiency virus 1; experiment: Anti-HIV activity against drug resistant HIV-1 harboring Y188L mutant infected in human MT4 cells assessed as inhibition of virus-induced cytopathic effect by MTT assay; format: functional, organism-based; settings: Human immunodeficiency virus 1, MT4
[6] = molecular target: Human immunodeficiency virus type 1 reverse transcriptase (Human immunodeficiency virus 1, UniProt Q72547); experiment: Inhibition of wild type HIV-1 reverse transcriptase assessed as assessed as inhibition of biotin deoxyuridine triphosphate incorporation into […]
Cytochrome P450 2D6 = Cytochrome P450 2D6 (Homo sapiens, UniProt P10635); experiment: Inhibition of CYP2D6 in human liver microsomes using dextromethorphan as substrate measured after 10 mins in presence of NADPH; format: ADME, Microsome
Chain of Cytochrome P450 2D6 (P10635 whole entry): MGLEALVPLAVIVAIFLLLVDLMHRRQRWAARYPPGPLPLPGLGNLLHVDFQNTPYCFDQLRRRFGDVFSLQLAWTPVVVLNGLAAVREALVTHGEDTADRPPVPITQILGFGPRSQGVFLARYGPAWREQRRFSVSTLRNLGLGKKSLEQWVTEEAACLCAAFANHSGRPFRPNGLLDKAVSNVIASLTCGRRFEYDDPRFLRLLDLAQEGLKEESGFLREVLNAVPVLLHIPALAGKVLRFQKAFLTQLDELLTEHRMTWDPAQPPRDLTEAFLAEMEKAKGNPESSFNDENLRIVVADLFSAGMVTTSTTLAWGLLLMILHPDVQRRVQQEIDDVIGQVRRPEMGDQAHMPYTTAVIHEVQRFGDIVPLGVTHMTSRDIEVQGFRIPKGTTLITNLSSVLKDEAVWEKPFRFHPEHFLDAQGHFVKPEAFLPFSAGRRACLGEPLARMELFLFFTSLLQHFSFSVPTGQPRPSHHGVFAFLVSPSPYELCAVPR

Cytochrome P450 2C19 = Cytochrome P450 2C19 (Homo sapiens, UniProt P33261); experiment: Inhibition of CYP2C19 in human liver microsomes using mephenytoin as substrate measured after 10 mins in presence of NADPH; format: ADME, Microsome
Chain of Cytochrome P450 2C19 (P33261 whole entry): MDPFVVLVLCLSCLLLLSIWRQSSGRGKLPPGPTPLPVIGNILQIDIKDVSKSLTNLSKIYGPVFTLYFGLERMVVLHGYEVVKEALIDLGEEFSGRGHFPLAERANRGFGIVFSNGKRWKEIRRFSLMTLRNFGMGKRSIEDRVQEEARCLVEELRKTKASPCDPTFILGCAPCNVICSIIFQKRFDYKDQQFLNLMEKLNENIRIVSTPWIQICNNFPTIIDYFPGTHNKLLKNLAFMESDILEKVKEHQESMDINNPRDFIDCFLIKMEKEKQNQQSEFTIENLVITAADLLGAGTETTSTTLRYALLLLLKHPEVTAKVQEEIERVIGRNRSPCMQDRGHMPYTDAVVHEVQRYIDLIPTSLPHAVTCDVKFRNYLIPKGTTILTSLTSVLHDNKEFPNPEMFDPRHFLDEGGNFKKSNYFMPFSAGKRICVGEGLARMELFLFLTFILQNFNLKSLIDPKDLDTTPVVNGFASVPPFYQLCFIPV

[7] = Acute toxicity in mouse assessed as histopathological changes in spleen at 1000 mg/kg, po by Hematoxylin and eosin staining based microscopy; format: organism-based; settings: in vivo
[8] = system: Human immunodeficiency virus 1; experiment: Anti-HIV activity against wild type HIV-1 IIIB infected in human MT4 cells assessed as inhibition of virus-induced cytopathic effect by MTT assay; format: functional, organism-based; settings: Human immunodeficiency virus 1, IIIB
[9] = Cytotoxicity against human MT4 cells assessed as reduction in cell viability by MTT assay; format: toxicity, cell-based
[10] = system: Human immunodeficiency virus 1; experiment: Anti-HIV activity against drug resistant HIV-1 harboring K103N mutant infected in human MT4 cells assessed as inhibition of virus-induced cytopathic effect by MTT assay; format: functional, organism-based; settings: Human immunodeficiency virus 1, MT4
[11] = Selectivity index, ratio of CC50 for cytotoxicity against human MT4 cells assessed as reduction in cell viability by MTT assay to EC50 for anti-HIV activity against wild type HIV-1 IIIB infected in human MT4 cells assessed as inhibition of virus-induced cytopathic effect by MTT assay; format: toxicity, cell-based; settings: read-out: Ratio CC50/EC50
[12] = system: Human immunodeficiency virus 1; experiment: Anti-HIV activity against drug resistant HIV-1 harboring E138K mutant infected in human MT4 cells assessed as inhibition of virus-induced cytopathic effect by MTT assay; format: functional, organism-based; settings: Human immunodeficiency virus 1, MT4
Cytochrome P450 1A2 = molecular target: T2, Cytochrome P450 1A2 (Homo sapiens, UniProt P05177); experiment: Inhibition of CYP1A2 in human liver microsomes using phenacetin as substrate measured after 10 mins in presence of NADPH; format: ADME, Microsome
T2 sequence (P05177 whole entry): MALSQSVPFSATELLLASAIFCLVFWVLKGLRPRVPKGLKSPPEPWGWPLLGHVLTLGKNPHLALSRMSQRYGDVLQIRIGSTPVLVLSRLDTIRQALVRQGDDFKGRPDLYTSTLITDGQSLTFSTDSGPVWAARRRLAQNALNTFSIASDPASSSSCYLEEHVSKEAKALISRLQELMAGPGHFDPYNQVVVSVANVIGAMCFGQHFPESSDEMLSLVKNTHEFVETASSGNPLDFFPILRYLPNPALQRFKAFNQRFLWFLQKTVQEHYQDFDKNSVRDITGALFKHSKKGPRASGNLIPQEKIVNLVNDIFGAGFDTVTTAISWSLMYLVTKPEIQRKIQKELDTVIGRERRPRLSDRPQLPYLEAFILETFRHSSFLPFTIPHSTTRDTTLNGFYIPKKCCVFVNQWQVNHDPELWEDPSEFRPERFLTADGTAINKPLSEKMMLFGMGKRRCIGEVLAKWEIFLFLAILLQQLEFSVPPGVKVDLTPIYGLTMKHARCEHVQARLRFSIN

[13] = system: Human immunodeficiency virus 1; experiment: Anti-HIV activity against drug resistant HIV-1 harboring L100I mutant infected in human MT4 cells assessed as inhibition of virus-induced cytopathic effect by MTT assay; format: functional, organism-based; settings: Human immunodeficiency virus 1, MT4
Cytochrome P450 3A4 [14] = molecular target: T1, Cytochrome P450 3A4; experiment: Inhibition of CYP3A4T in human liver microsomes using testosterone as substrate measured after 10 mins in presence of NADPH; format: ADME, Microsome
[15] = Acute toxicity in mouse assessed as histopathological changes in brain at 1000 mg/kg, po by Hematoxylin and eosin staining based microscopy; format: organism-based; settings: in vivo
Cytochrome P450 2C9 = Cytochrome P450 2C9 (Homo sapiens, UniProt P11712); experiment: Inhibition of CYP2C9 in human liver microsomes using tolbutamide as substrate measured after 10 mins in presence of NADPH; format: ADME, Microsome
Chain of Cytochrome P450 2C9 (P11712 whole entry): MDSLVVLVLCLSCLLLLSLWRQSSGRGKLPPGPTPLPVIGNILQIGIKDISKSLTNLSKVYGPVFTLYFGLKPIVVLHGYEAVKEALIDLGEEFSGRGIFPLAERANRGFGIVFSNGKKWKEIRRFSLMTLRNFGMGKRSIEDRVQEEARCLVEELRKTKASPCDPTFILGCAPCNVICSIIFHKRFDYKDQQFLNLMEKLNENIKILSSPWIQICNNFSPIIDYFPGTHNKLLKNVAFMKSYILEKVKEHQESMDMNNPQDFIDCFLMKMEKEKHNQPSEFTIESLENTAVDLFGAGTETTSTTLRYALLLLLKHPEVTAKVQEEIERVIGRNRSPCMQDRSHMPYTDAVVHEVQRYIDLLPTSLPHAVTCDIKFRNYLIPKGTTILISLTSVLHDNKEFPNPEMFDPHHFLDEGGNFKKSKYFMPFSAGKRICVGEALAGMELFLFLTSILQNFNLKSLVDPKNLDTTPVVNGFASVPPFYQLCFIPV

[16] = Acute toxicity in mouse assessed as histopathological changes in heart at 1000 mg/kg, po by Hematoxylin and eosin staining based microscopy; format: organism-based; settings: in vivo
[17] = system: Human immunodeficiency virus 1; experiment: Anti-HIV activity against drug resistant HIV-1 harboring Y181C mutant infected in human MT4 cells assessed as inhibition of virus-induced cytopathic effect by MTT assay; format: functional, organism-based; settings: Human immunodeficiency virus 1, MT4
[18] = system: Human immunodeficiency virus 1; experiment: Anti-HIV activity against drug resistant HIV-1 harboring F227L/V106A mutant infected in human MT4 cells assessed as inhibition of virus-induced cytopathic effect by MTT assay; format: functional, organism-based; settings: Human immunodeficiency virus 1, MT4
[19] = Acute toxicity in mouse assessed as histopathological changes in liver at 1000 mg/kg, po by Hematoxylin and eosin staining based microscopy; format: organism-based; settings: in vivo

Chain of hERG (KCNH2) (Q12809 whole entry): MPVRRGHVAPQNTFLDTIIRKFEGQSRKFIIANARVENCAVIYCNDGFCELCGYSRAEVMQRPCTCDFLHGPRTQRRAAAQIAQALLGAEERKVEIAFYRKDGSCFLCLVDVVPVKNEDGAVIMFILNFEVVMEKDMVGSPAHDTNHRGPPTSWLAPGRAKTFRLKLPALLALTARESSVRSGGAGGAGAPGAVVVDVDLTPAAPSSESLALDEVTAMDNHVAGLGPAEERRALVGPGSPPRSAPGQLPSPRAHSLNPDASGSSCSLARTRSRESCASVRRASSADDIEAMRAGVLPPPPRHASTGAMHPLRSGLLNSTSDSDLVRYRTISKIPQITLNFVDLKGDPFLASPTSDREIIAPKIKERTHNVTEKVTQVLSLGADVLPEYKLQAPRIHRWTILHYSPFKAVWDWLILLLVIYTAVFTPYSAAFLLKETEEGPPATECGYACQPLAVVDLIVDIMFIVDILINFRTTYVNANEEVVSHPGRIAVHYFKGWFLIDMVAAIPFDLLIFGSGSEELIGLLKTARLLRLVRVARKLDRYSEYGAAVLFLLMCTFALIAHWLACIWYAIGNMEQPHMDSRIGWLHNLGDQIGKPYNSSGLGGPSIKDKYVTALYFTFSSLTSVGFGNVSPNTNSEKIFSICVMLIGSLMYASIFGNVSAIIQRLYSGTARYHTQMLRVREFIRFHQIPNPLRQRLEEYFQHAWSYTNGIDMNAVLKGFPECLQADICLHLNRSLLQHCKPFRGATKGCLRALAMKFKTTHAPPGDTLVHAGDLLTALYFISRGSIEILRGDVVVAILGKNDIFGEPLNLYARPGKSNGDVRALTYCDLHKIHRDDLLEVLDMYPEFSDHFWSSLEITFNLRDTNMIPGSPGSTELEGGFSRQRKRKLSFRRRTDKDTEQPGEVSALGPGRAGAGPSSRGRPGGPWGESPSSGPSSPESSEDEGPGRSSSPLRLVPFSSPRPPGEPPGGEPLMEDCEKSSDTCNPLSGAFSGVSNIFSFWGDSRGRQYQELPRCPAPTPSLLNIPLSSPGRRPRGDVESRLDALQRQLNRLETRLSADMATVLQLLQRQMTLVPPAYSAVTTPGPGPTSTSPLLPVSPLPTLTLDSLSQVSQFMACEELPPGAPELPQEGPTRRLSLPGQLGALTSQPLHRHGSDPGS

| Structure (SMILES) | EC50 [5] [µM] | IC50 [6] [nM] | EC50 [8] [nM] | CC50 [9] [µM] | EC50 [10] [µM] | selectivity ratio [11] | EC50 [12] [nM] | EC50 [13] [nM] | EC50 [17] [µM] | EC50 [18] [µM] | further results |
| --- | --- | --- | --- | --- | --- | --- | --- | --- | --- | --- | --- |
| Cc1cc(C)cc(C(N=[N+]=[N-])c2nc(SC(C)C)[nH]c(=O)c2C)c1 (centres undefined) | 203 | 80 | 53 | > 364 | 2.51 | > 6820 | 260 | 1050 | 2.28 | 7.88 | inhibition at 40 µM (hERG (KCNH2)): 41.4%; Activity [1]: Non-Toxic; Activity [2]: Non-Toxic; Activity [3]: Non-Toxic; IC50 (Cytochrome P450 3A4 [4]): > 50 µM; IC50 (Cytochrome P450 2D6): > 50 µM; IC50 (Cytochrome P450 2C19): 27.1 µM; Activity [7]: Non-Toxic; IC50 (Cytochrome P450 1A2): > 50 µM; IC50 (Cytochrome P450 3A4 [14]): > 50 µM; Activity [15]: Non-Toxic; IC50 (Cytochrome P450 2C9): 35.8 µM; Activity [16]: Non-Toxic; Activity [19]: Non-Toxic |
| CCc1c(C(N=[N+]=[N-])c2cc(C)cc(C)c2)nc(SC(C)C)[nH]c1=O (centres undefined) | > 350 | 100 | 67 | > 350 | 4.82 | > 5240 | 410 | 970 | 4.68 | 14.3 | – |
| CCc1c(C(N=[N+]=[N-])c2ccc(C)cc2)nc(SC(C)C)[nH]c1=O (centres undefined) | > 364 | 170 | 160 | > 364 | 3.9 | > 2300 | 450 | 130 | 114 | 314 | – |
